# Experimental data as given in PubChem BioAssay AID504726 (Broad Institute, 2011).
# Activity calls are given as the source filed them.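 The calls were made as follows: active = fitted half-maximal concentration for a cytotoxic signal drop no higher than ten times the top valid dose tested; inconclusive = flat curve between -70 and -30 percent, or an unreliable fit; inactive = flat within 30 percent, signal rise, or potency beyond limit.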
# Assay: HeLa cell cytotoxicity, dose response, cytotoxicity control, 24 h, cherry-picked samples (AID 504726);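 also: 0% = DMSO neutral controls and -100% = mitoxantrone positive controls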
# Conditions: HeLa viability, CellTiter-Glo ATP luminescence, 24 h; at 35 µM (top of the series)
row,Structure (SMILES),"activity change, negative = cytotoxicity"
1,O=c1c2c(nc3cc(-c4ccc(F)cc4)[nH]n13)CCC2,-13.7% (inactive)
2,CC1=NCCc2c1[nH]c1cc(O)ccc21,-12.7% (inactive)
3,CCn1c(CN2CCCCC2)nc2cc(S(=O)(=O)N3CCCCC3)ccc21,-13.7% (inactive)
4,N=C1/C(=C\c2ccc(Br)o2)C(=O)N=C2SC(CC(=O)N3CCOCC3)=NN12,1.98% (inactive)
5,CC(OC(=O)CCN1C(=O)C2CC=CCC2C1=O)C(=O)Nc1ccc(F)cc1 (centres undefined),-6.8% (inactive)
6,Cc1nnc(NC(=O)CN2C(=O)NC3(CCCC3)C2=O)s1,-0.18% (inactive)
7,Cc1cc(C)n(CCC(=O)N/N=C/c2ccc(O)cc2O)n1,-6.35% (inactive)
8,Cc1ccc(S(=O)(=O)Nc2ccc(Br)cc2C(NCC(=O)O)c2ccccc2)cc1 (centres undefined),0.422% (inactive)
9,COc1ccc(C)cc1NC(=O)C(OC(=O)c1cnccn1)c1ccccc1 (centres undefined),-9.07% (inactive)
10,COc1ccc(OC)c(N2C(=O)NC(=O)/C(=C\c3ccc([N+](=O)[O-])s3)C2=O)c1,-3.62% (inactive)
11,NNC(=O)CC1=NNC(=O)C1,-0.701% (inactive)
12,Cc1cc(C)nc(SCC(=O)N/N=C/c2cc(C)n(-c3ccccc3C)c2C)n1,-7.55% (inactive)
13,COc1cccc(/C=N/NC(=O)C(=O)NCc2cccnc2)c1O,-7.2% (inactive)
14,COc1ccc(OC2CCN(S(=O)(=O)c3ccc(OC)cc3)CC2)cc1,-12.1% (inactive)
15,CCN(CC)S(=O)(=O)N1CCN(S(=O)(=O)N2CCOCC2)CC1,1.89% (inactive)
16,O=C(O)C(Cc1ccccc1)N1C(=O)/C(=C/C=C/c2ccco2)SC1=S (centres undefined),-11.4% (inactive)
17,Cc1nc(Cl)c2c(n1)NC1=C(O2)C(=O)CCC1,-16.2% (inactive)
18,CCc1ccc(C2CC(c3cccc(Cl)c3)n3nc(N)nc3N2)cc1 (centres undefined),-1.95% (inactive)
19,O=c1[nH][nH]cc1C=Nc1ccc(Cl)cc1Cl,-7.34% (inactive)
20,O=C(CN1CCN(C(=O)CNC(=O)c2ccc3c(c2)OCO3)CC1)Nc1ccc(F)cc1,-9.87% (inactive)
21,COc1ccc(-c2cnc3n2CCCCC3)cc1,0.279% (inactive)

row,Structure (SMILES),"activity change, negative = cytotoxicity"
1,O=c1cc2c(=O)oc3cc(O)c(O)oc3c2c(O)c1O,-7.01% (inactive)
2,CC(=O)Nc1ccc(S(=O)(=O)Nc2nc3ccccc3nc2Nc2ccc(C(=O)O)c(O)c2)cc1,-13.1% (inactive)
3,c1ccc2[nH]c3cc4ncnc4cc3nc2c1,5.9% (inactive)
4,CCOC(=O)C1(Cc2cccc(F)c2)CCN(Cc2c(C)nn(CC)c2C)CC1,0.828% (inactive)
5,CC1Cc2ccccc2N1C(=O)CCS(=O)(=O)c1cccs1 (centres undefined),-6.91% (inactive)
6,O=C(O)CN1C(=O)/C(=C\c2cc(Br)ccc2OCc2ccc([N+](=O)[O-])cc2)SC1=S,-1.76% (inactive)
7,NC(=S)NN=Cc1ccc(-c2ccc(S(=O)(=O)Nc3ncccn3)cc2)o1,-14.8% (inactive)
8,COc1cccc(OCCCn2cc(/C=C3/C(=N)N4C=C(C)SC4=NC3=O)c3ccccc32)c1,-7.08% (inactive)
9,CCc1ccc(N2CC(C(=O)OCC(=O)N(CC)c3c(N)n(Cc4ccccc4)c(=O)[nH]c3=O)CC2=O)cc1 (centres undefined),-9.97% (inactive)
10,Nc1ccc2c(O)cc(S(=O)(=O)O)cc2c1,-11% (inactive)
11,Nc1nnc(CC(=O)N/N=C/c2cc([N+](=O)[O-])cc(Br)c2O)s1,-8.04% (inactive)
12,CCN(CC(=O)NCc1cccs1)C(=O)c1ccc(S(=O)(=O)Nc2ccccc2C)cc1,2.2% (inactive)
13,O=C(NC1CCCCC1)c1cc([N+](=O)[O-])ccc1N1CCOCC1,-0.855% (inactive)
14,Cc1nn(Cc2c(F)c(F)c(F)c(F)c2F)c(C)c1NC(=O)c1ccnn1C,-4.82% (inactive)
15,CN1CC=C2C(C#N)=C(N)C(C#N)(C#N)[C@H](c3ccoc3)[C@H]2C1,0.209% (inactive)
16,NNC(=O)C1C(O)CCC2CN3CCc4c([nH]c5ccccc45)C3CC21 (centres undefined),-12.3% (inactive)
17,CC(=O)Oc1ccc2c(c1)Oc1cc(OC(C)=O)ccc1C21OC(=O)c2ccccc21,-1.71% (inactive)
18,CCOc1ccc(-n2c(Cc3cc(=O)[nH]c(=O)[nH]3)nnc2SCc2cccnc2)cc1,-1.5% (inactive)
19,c1ccc(-c2cn3nc(-c4ccccc4)c(-c4ccccc4)nc3n2)cc1,-12.6% (inactive)
20,FC(F)(F)c1nnc(-c2ccccc2)nc1N1CCCC1,-13.4% (inactive)
21,O=C(NC1(O)C(=O)c2ccccc2C1=O)c1c(Cl)cccc1Cl,-4.52% (inactive)

row,Structure (SMILES),"activity change, negative = cytotoxicity"
1,Clc1ccc(-c2nnc3sc(-c4ccc(Br)o4)nn23)cc1,-3.6% (inactive)
2,COCCNC(=O)Cn1cc(/C=C2\C(=O)NC(=O)N(c3cccc(C)c3C)C2=O)c2ccccc21,-12.7% (inactive)
3,N#CCCN(CCC#N)C(=O)C1c2ccccc2Oc2ccccc21,-3.39% (inactive)
4,Cc1nc2ccccc2n2c(O)c(CC(=O)O)cc12,-13.5% (inactive)
5,COc1ccccc1C(=O)NCC(=O)OCC(=O)N(CC(C)C)c1c(N)n(Cc2ccccc2)c(=O)[nH]c1=O,1.22% (inactive)
6,CCOC(=O)[C@H]1[C@H]2COc3cc(OC)ccc3[C@@H]2N2C(=O)CN(Cc3ccc(OC)cc3)C(=O)[C@@]12C,-9.01% (inactive)
7,Cc1cc(-c2nnc(SCC(=O)Nc3ccccc3)n2C)no1,-3.15% (inactive)
8,Cc1ccc(C(CC(=O)N2CCCCC2)c2ccccc2)c(O)c1C (centres undefined),-3.99% (inactive)
9,Cc1ccccc1N1C(=O)c2cccc3c(N(C)CCO)ccc(c23)C1=O,-13.3% (inactive)
10,CCCCn1nc(CC(=O)O)c2ccccc2c1=O,-0.208% (inactive)
11,O=C(c1coc(=O)c(Br)c1)N1CCCc2ccccc21,-15% (inactive)
12,O=C(CSc1cccc2cccnc12)N/N=C/c1ccc(O)cc1,0.069% (inactive)
13,O=C(O)CCCN1C(=O)/C(=C/C=C/c2ccco2)SC1=S,-9.04% (inactive)
14,Cc1cccc(NC(=O)CN2C(=O)NC(C)(c3ccc4ccccc4c3)C2=O)n1 (centres undefined),-4.54% (inactive)
15,Cc1cccc(COc2ccc(/C=N/NC(=O)c3nnn(-c4nonc4N)c3COc3ccc(F)cc3)cc2)c1,-4.08% (inactive)
16,COc1cc(-c2ccc(Nc3ccccc3C(=O)O)c(OC)c2)ccc1Nc1ccccc1C(=O)O,-14.8% (inactive)
17,O=C(CC1CCCC1)N1CCN(S(=O)(=O)c2ccccc2)CC1,-13.4% (inactive)
18,Cc1cccc(N2C(=O)c3cccc4c(N)ccc(c34)C2=O)c1,3.39% (inactive)
19,CC(Cc1ccccc1)NC(=O)NC(C)Cc1ccccc1 (centres undefined),-7.16% (inactive)
20,COC(=O)c1ccccc1NC(=O)CCS(=O)(=O)c1ccc(Br)cc1,10.1% (inactive)
21,CCN(C(=O)COC(=O)c1nc2nc(C)cc(C)n2n1)C1CCCCC1,5.26% (inactive)

row,Structure (SMILES),"activity change, negative = cytotoxicity"
1,COC(=O)C1CCN(C(=O)COC(=O)Cc2c[nH]c3ccccc23)CC1,-20.6% (inactive)
2,COc1cc(C(=S)N2CCN(c3cccc(Cl)c3)CC2)ccc1O,9.69% (inactive)
3,Cc1ccccc1C1=C/C(=C(\SS/C(C(=O)c2ccc(OCC(=O)O)c(Cl)c2Cl)=C2\C=C(c3ccccc3C)SS2)C(=O)c2ccc(OCC(=O)O)c(Cl)c2Cl)SS1,-8.33% (inactive)
4,Nc1ccc2nc3c(=O)n(C4CCCCC4)c(=O)[nH]c3nc2c1,-0.337% (inactive)
5,Clc1ccc(C2=CC(c3ccco3)n3ncnc3N2)cc1 (centres undefined),-16.1% (inactive)
6,Cc1cc(C(F)(F)F)c2c(N)c(C(=O)Nc3cc(C)on3)sc2n1,-0.48% (inactive)
7,Nc1c(/C=C2/C=CC(=O)C(O)=C2)c(=O)nc2sc(CC(=O)N3CCCC3)nn12,-5.49% (inactive)
8,O=C1c2ccccc2C(Nc2ccc3c(c2)OCCO3)N1Cc1ccc2c(c1)OCO2 (centres undefined),-13.3% (inactive)
9,O=C(CCN1C(=O)/C(=C/c2ccco2)SC1=S)Nc1ccc(C(=O)O)c(O)c1,2.73% (inactive)
10,COc1cccc2c1NC(C(=O)O)C1CC=CC21 (centres undefined),-12.8% (inactive)
11,CC(Oc1ccccc1)c1nnc(N)s1 (centres undefined),-3.11% (inactive)
12,CC(=O)Nc1ccc(S(=O)(=O)Nc2ccccc2N2CCOCC2)cc1,1.3% (inactive)
13,O=C(/C=C\c1ccccc1)Oc1cccc2cccnc12,-9.78% (inactive)
14,O=C(CN1CC[C@@]2(O)CCCC[C@H]2[C@@H]1c1ccc(F)cc1)NCc1ccco1,-5.52% (inactive)
15,O=C(NCCCO)c1ccc2nc(-c3ccco3)c(-c3ccco3)nc2c1,-12.3% (inactive)
16,Cc1noc(C)c1-c1nc(CSc2ccccc2)no1,-16.7% (inactive)
17,Cc1ccc(C)c(N2CCN(C(=O)c3cc4ccccn4n3)CC2)c1,3.79% (inactive)
18,N=C1/C(=C/c2ccc(-c3cccc(C(=O)O)c3)o2)C(=O)N=C2SC(CC(=O)N3CCOCC3)=NN12,-4.55% (inactive)
19,O=C(OCCN1C(=O)c2cccc3c(N4CCOCC4)ccc(c23)C1=O)c1ccc(Cl)cc1,-11.7% (inactive)
20,CS(=O)(=O)Nc1nc2n(n1)C(c1ccccc1)C=C(c1ccc(Br)cc1)N2 (centres undefined),-2.61% (inactive)
21,CCc1nnc(NC(=O)c2cccc(S(=O)(=O)N(C)c3ccccc3)c2)s1,-7.23% (inactive)
